Measurements taken from patent US9271978B2 (Zenith Epigenetics Corp., priority 2012, dated 2016).

Legend:
MM1.s cells = assay: In vivo efficacy, multiple myeloma xenograft model using MM1.s cells; set-up: species or system mouse; conditions: MM1.s multiple myeloma xenograft in mice, oral 25 to 90 mg/kg b.i.d, tumor growth inhibition
Description: MM1.s cells (ATCC) were grown under standard cell culture conditions and SCID-Beige strain of female mice age 6-7 weeks were injected with 10×10^6 cells/animal in 100 μl PBS+100 μL Matrigel in the lower left abdominal flank. By approximately day 21 after MM1.s cells injection, mice were randomized based on tumor volume (L×W×H)/2) of average ^˜120 mm^3. Mice were dosed orally with compound at 25 to 90 mg/kg b.i.d in EA006 formulation at 10 mL/kg body weight dose volume. Tumor measurements were taken with electronic micro calipers and body weights measured on alternate days beginning from dosing period. The average tumor volumes, percent Tumor Growth Inhibition (TGI) and % change in body weights were compared relative to Vehicle control animals. The means, statistical analysis and the comparison between groups were calculated using Student's t-test in Excel.

[1] = target: T1, Brd4 bromodomain 1 (BRD4(1)) (Homo sapiens, UniProt O60885); assay: Inhibition of tetra-acetylated histone H4 binding to Brd4 bromodomain 1 (TR-FRET); set-up: key: Active: Compounds with an IC50 value less than 30 μM were deemed to be active.; Not Active: Compounds with an IC50 value less than 30 μM were deemed to be active; conditions: tetra-acetylated histone H4 peptide, active = IC50 <30 μM
T1 construct: Illustrative results with the first bromodomain of Brd4; made in house; host or cells: E. coli BL21 (DE3)
Outline: (§1)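 IC50 values come from dose-response curves of the 665 nm to 620 nm TR-FRET signal decrease, measured after 2 h at room temperature. Reactions contained 200 nM E. coli-expressed His-tagged bromodomain, 25-50 nM biotinylated tetra-acetylated H4 peptide, Eu-streptavidin plus XL665 anti-His antibody, with 30 mM HEPES pH 7.4, 320 mM KF and 0.2% DMSO.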

hIL-17 mRNA = assay: Inhibition of hIL-17 mRNA transcription in human peripheral blood mononuclear cells; assay type: cell-based; set-up: key: Active: Compounds with an IC50 value less than 30 μM were deemed to be active.; Not Active: Compounds with an IC50 value less than 30 μM were deemed to be active; conditions: OKT3 antibody stimulation
Description: In this example, hIL-17 mRNA in human peripheral blood mononuclear cells was quantitated to measure the transcriptional inhibition of hIL-17 when treated with a compound of the invention.
Human peripheral blood mononuclear cells were plated (2.0×10^5 cells per well) in a 96-well plate in 45 μL OpTimizer T Cell expansion media containing 20 ng/ml IL-2 and penicillin/streptomycin. The cells were treated with the test compound (45 μL. at 2× concentration), and then the cells were incubated at 37° C. for 1 h before addition of 10× stock OKT3 antibody at 10 ug/ml in media. Cells were incubated at 37° C. for 3 h before the cells were harvested. At time of harvest, cells were centrifuged (800 rpm, 5 min). Spent media was removed and cell lysis solution (70 μL) was added the cells in each well and incubated for 5-10 min at room temperature, to allow for complete cell lysis and detachment. mRNA was then prepared using the “mRNA Catcher PLUS plate” (Invitrogen), according to the protocol supplied. After the last wash, as much wash buffer as possible was aspirated without allowing the wells to dry. Elution buffer (E3, 70 μL) was then added to each well. mRNA was then eluted by incubating the mRNA Catcher PLUS plate with Elution Buffer for 5 min at 68° C. and then immediately placing the plate on ice.
(§2) The eluted mRNA isolated was then used in a one-step quantitative real-time PCR reaction, using components of the Ultra Sense Kit together with Applied Biosystems primer-probe mixes. Real-time PCR data was analyzed, normalizing the Ct values for hIL-17 to an internal control, prior to determining the fold induction of each unknown sample, relative to the control.

c-myc = assay: Inhibition of c-myc expression in MV4-11 cells (mRNA, real-time PCR); assay type: cell-based; set-up: key: Active: Compounds with an IC50 value less than 30 μM were deemed to be active.; Not Active: Compounds with an IC50 value less than 30 μM were deemed to be active; conditions: Human AML MV4-11 cells, 3 h incubation
Outline: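 Duplex RT-qPCR of c-myc against cyclophilin cDNA gave IC50 from a dose–response curve. Input was isolated mRNA from 2.5×10^4 MV4-11 cells after 3 h exposure at 37 °C to compound or 0.1% DMSO vehicle.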

hIL-6 mRNA = assay: Inhibition of hIL-6 mRNA transcription in U937 cells; assay type: cell-based, human; set-up: key: Active: Compounds with an IC50 value less than 30 μM were deemed to be active.; Not Active: Compounds with an IC50 value less than 30 μM were deemed to be active; conditions: LPS stimulation, active = IC50 <30 μM
Outline: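 Readout is one-step real-time PCR of hIL-6 mRNA, normalized to an internal control and given as fold induction versus control. Cells: PMA (60 ng/mL, 3 days)-differentiated U937 macrophages, compound added 1 h before 1 ug/mL LPS, harvested after 3 h at 37° C.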

[2] = tested on: human AML MV-4-11 (CRL-9591) cells; assay: Inhibition of cell proliferation in MV4-11 cells; assay type: cell-based; set-up: key: Active: Compounds with an IC50 value less than 30 μM were deemed to be active.; Not Active: Compounds with an IC50 value less than 30 μM were deemed to be active; conditions: human AML MV-4-11 cells, 72 h; active = IC50 <30 μM
Outline: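 IC50 values come from blank-corrected proliferation relative to DMSO controls, read as 490 nm absorbance 3–4 h after CellTiter Aqueous One addition. Before that, cells seeded at 5×10^4/well were exposed for 72 h (37° C, 5% CO2) to triplicate two-fold compound dilutions spanning 30–0.2 μM.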

[3] = target: T2, second bromodomain of Brd2 (BRD2(2)) (Homo sapiens, UniProt P25440); assay: Inhibition of tetra-acetylated histone H4 binding to Brd2 bromodomain 2 (TR-FRET); set-up: key: Active: Compounds with an IC50 value less than 30 μM were deemed to be active.; Not Active: Compounds with an IC50 value less than 30 μM were deemed to be active; conditions: tetra-acetylated histone H4 peptide, active = IC50 <30 μM
T2 construct: made in house; host or cells: E. coli BL21 (DE3)
T2 sequence (P25440 344-453 limits assumed): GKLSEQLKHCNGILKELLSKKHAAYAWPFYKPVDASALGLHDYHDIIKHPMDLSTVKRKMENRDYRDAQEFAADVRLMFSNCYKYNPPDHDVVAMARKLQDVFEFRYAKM
Outline: as §1

hMCP-1 mRNA = assay: Inhibition of hMCP-1 mRNA transcription in human peripheral blood mononuclear cells; assay type: cell-based; set-up: key: Active: Compounds with an IC50 value less than 30 μM were deemed to be active.; Not Active: Compounds with an IC50 value less than 30 μM were deemed to be active; conditions: 3 h
Description: In this example, hMCP-1 mRNA in human peripheral blood mononuclear cells was quantitated to measure the transcriptional inhibition of hMCP-1 when treated with a compound of the present disclosure.
Human Peripheral Blood Mononuclear Cells were plated (1.0×10^5 cells per well) in a 96-well plate in 45 μL RPMI-1640 containing 10% FBS and penicillin/streptomycin. The cells were treated with the test compound (45 μL at 2× concentration), and then the cells were incubated at 37° C. for 3 h before the cells were harvested. At time of harvest, cells were transferred to V-bottom plates and centrifuged (800 rpm, 5 min). Spent media was removed and cell lysis solution (70 μL) was added the cells in each well and incubated for 5-10 min at room temperature, to allow for complete cell lysis and detachment. mRNA was then prepared using the “mRNA Catcher PLUS plate” (Invitrogen), according to the protocol supplied. After the last wash, as much wash buffer as possible was aspirated without allowing the wells to dry. Elution buffer (E3, 70 μL) was then added to each well. mRNA was then eluted by incubating the mRNA Catcher PLUS plate with Elution Buffer for 5 min at 68° C. and then immediately placing the plate on ice.
as §2, with “hMCP-1” for “hIL-17”

Cc1noc(C)c1-c1cc(N)c(=O)n(Cc2ccc(Cl)cc2)c1 [Example 152, 3-Amino-1-(4-chlorobenzyl)-5-(3,5-dimethylisoxazol-4-yl)pyridin-2(1H)-one]
Active: In vivo activity (MM1.s cells) | FRET activity (IC50 <30 μM) BRD4(1) [1]

Cc1noc(C)c1-c1cc(N)c(=O)n(Cc2cccc3[nH]cc(C)c23)c1 [Example 271, 3-Amino-5-(3,5-dimethylisoxazol-4-yl)-1-((3-methyl-1H-indol-4-yl)methyl)pyridin-2(1H)-one]
Active: IL-17 activity (IC50 < 30 μM) (hIL-17 mRNA) | FRET activity (IC50 <30 μM) BRD4(1) [1] | c-myc activity (IC50 <30 μM) (c-myc) | IL-6 activity (IC50 <30 μM) (hIL-6 mRNA) | Cell Proliferation activity (IC50 <30 μM) [2]

Cc1noc(C)c1-c1ccc(=O)n(Cc2ccccc2F)c1 [Example 27, 5-(3,5-Dimethylisoxazol-4-yl)-1-(2-fluorobenzyl)pyridin-2(1H)-one]
Active: FRET activity (IC50 <30 μM) BRD2(2) [3] | FRET activity (IC50 <30 μM) BRD4(1) [1] | MCP-1 activity (IC50 < 30 μM) (hMCP-1 mRNA) | IL-6 activity (IC50 <30 μM) (hIL-6 mRNA) | Cell Proliferation activity (IC50 <30 μM) [2]
